In patent US20230143612A1 (Arbutus Biopharma Corporation, priority 2020, published 2023):

Biological target: PD-L1 His protein / PD-1 Fc protein (Homo sapiens, UniProt Q9NZQ7)
Assay: HTRF Assay (PD-1/PD-L1 interaction)
Assay type: binding
Conditions: PD-L1 His 6 nM, PD-1 Fc 6 nM
Outline: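 Compounds tested from 20 μM down to 0.001 μM (3-fold) against 6 nM PD-L1 His and 6 nM PD-1 Fc, 15 min room temperature incubation. Detection after 1 h at room temperature with Tb cryptate anti-6HIS and XL665 anti-human IgG reagents (mixture at 0.35 nM and 6.7 nM), HTRF signal.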

PD-L1 His protein / PD-1 Fc protein, sequence (Q9NZQ7 19-238 limits assumed): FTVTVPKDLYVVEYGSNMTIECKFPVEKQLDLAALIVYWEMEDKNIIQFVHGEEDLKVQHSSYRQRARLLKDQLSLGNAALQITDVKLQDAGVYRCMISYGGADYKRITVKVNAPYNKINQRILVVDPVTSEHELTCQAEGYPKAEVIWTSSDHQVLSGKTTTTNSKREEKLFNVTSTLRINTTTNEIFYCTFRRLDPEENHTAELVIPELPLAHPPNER

SMILES	IC50
COc1nc(-c2cccc(-c3cccc(-c4ccn5c(=O)c(CNC[C@@H]6CCC(=O)N6)cnc5c4)c3Cl)c2Cl)ccc1CNC[C@H](C)O [Example 197, 8-(2,2′-Dichloro-3′-(5-((((S)-2-hydroxypropyl)amino)methyl)-6-methoxypyridin-2-yl)-[1,1′-biphenyl]-3-yl)-3-(((((S)-5-oxopyrrolidin-2-yl)methyl)amino)methyl)-4H-pyrido[1,2-a]pyrimidin-4-one]	0.2 nM
Cc1c(COc2cc(OCc3cncc(C#N)c3)c(CNCCO)cc2Cl)cccc1-c1cccc(-c2ccn3c(=O)c(CNCCO)cnc3c2)c1C#N [Example 25, 5-((4-Chloro-5-((2′-cyano-3′-(3-(((2-hydroxyethyl)amino)methyl)-4-oxo-4H-pyrido[1,2-a]pyrimidin-8-yl)-2-methyl-[1,1′-biphenyl]-3-yl)methoxy)-2-(((2-hydroxyethyl)amino)methyl)phenoxy)methyl)nicotinonitrile]	0.3 nM
COc1nc(-c2cccc(-c3cccc(-c4ccc5c(CNC[C@@H]6CCO6)cn(C)c5n4)c3Cl)c2Cl)ccc1CNC[C@@H]1CCC(=O)N1 [Example 413, (5S)-5-[[[6-[2-Chloro-3-[2-chloro-3-[1-methyl-3-[[[(2S)-oxetan-2-yl]methylamino]methyl]pyrrolo[2,3-b]pyridin-6-yl]phenyl]phenyl]-2-methoxy-3-pyridyl]methylamino]methyl]pyrrolidin-2-one]	190 nM
CNC(=O)CCNCc1cnc2cc(-c3cccc(-c4cccc(-c5ccc(CNC[C@@H]6CCC(=O)N6)c(OC)n5)c4Cl)c3Cl)ccn2c1=O [Example 210, (S)-3-(((8-(2,2′-dichloro-3′-(6-methoxy-5-((((5-oxopyrrolidin-2-yl)methyl)amino)methyl)pyridin-2-yl)-[1,1′-biphenyl]-3-yl)-4-oxo-4H-pyrido[1,2-a]pyrimidin-3-yl)methyl)amino)-N-methylpropanamide]	0.1 nM
COc1nc(-c2cccc(-c3cccc(-c4ccn5c(=O)c(CNC[C@@H]6CCC(=O)N6)cnc5c4)c3Cl)c2Cl)cc(Cl)c1CNC[C@@H]1CCC(=O)N1 [Example 335, 8-[2-Chloro-3-[2-chloro-3-[4-chloro-6-methoxy-5-[[[(2S)-5-oxopyrrolidin-2-yl]methylamino]methyl]-2-pyridyl]phenyl]phenyl]-3-[[[(2S)-5-oxopyrrolidin-2-yl]methylamino]methyl]pyrido[1,2-a]pyrimidin-4-one]	2.1 nM
COc1nc(-c2cccc(-c3cccc(-c4cc5c(=O)n(C)c(CN6CC(C)(O)C6)nn5c4)c3Cl)c2Cl)ccc1CNC[C@@H]1CCC(=O)N1 [Example 469, 6-[2-Chloro-3-[2-chloro-3-[6-methoxy-5-[[[(2S)-5-oxopyrrolidin-2-yl]methylamino]methyl]-2-pyridyl]phenyl]phenyl]-2-[(3-hydroxy-3-methyl-azetidin-1-yl)methyl]-3-methyl-pyrrolo[2,1-f][1,2,4]triazin-4-one]	5.9 nM
COc1nc(-c2cccc(-c3cccc(-c4ccc5nc(CNC[C@@H]6CCC(=O)N6)cn5n4)c3Cl)c2Cl)ccc1CNC[C@@H]1CCC(=O)N1 [Example 338, (5S)-5-[[[6-[2-Chloro-3-[2-chloro-3-[2-[[[(2S)-5-oxopyrrolidin-2-yl]methylamino]methyl]imidazo[1,2-b]pyridazin-6-yl]phenyl]phenyl]-2-methoxy-3-pyridyl]methylamino]methyl]pyrrolidin-2-one]	0.3 nM
COc1nc(-c2cc(F)cc(-c3cccc(-c4ccn5c(=O)c(CNC[C@@H]6CCC(=O)N6)cnc5c4)c3C)c2Cl)ccc1CNC[C@@H]1CCC(=O)N1 [Example 97, 8-(2′-Chloro-5′-fluoro-3′-(6-methoxy-5-(((((S)-5-oxopyrrolidin-2-yl)methyl)amino)methyl)pyridin-2-yl)-2-methyl-[1,1′-biphenyl]-3-yl)-3-(((((S)-5-oxopyrrolidin-2-yl)methyl)amino)methyl)-4H-pyrido[1,2-a]pyrimidin-4-one]	5.1 nM
COc1cc(-c2cccc(-c3cccc(-c4ccc(CNC[C@@H]5CCC(=O)N5)c(OC)n4)c3Cl)c2Cl)cc2c1CN(C[C@@H](C)O)CC2 [Example 419, (S)-5-((((6-(2,2′-Dichloro-3′-(2-((R)-2-hydroxypropyl)-8-methoxy-1,2,3,4-tetrahydroisoquinolin-6-yl)-[1,1′-biphenyl]-3-yl)-2-methoxypyridin-3-yl)methyl)amino)methyl)pyrrolidin-2-one]	26 nM
COc1nc(-c2cccc(-c3cccc(-c4ccn5c(=O)c(CNCC6CC(F)(F)C(=O)N6)cnc5c4)c3Cl)c2Cl)ccc1CNC[C@@H]1CCC(=O)N1 (mixture of isomers) [Example 253, 8-[2-Chloro-3-[2-chloro-3-[6-methoxy-5-[[[(2S)-5-oxopyrrolidin-2-yl]methylamino]methyl]-2-pyridyl]phenyl]phenyl]-3-[[(4,4-difluoro-5-oxo-pyrrolidin-2-yl)methylamino]methyl]pyrido[1,2-a]pyrimidin-4-one]	5.7 nM
COc1nc(-c2cccc(-c3cccc(-c4ccn5c(=O)c(CNC[C@@H]6CCC(=O)N6)cnc5c4)c3Cl)c2Cl)ccc1CN[C@H]1C[C@H](O)C1 [Example 158, 8-(2,2′-Dichloro-3′-(5-((((1r,3r)-3-hydroxycyclobutyl)amino)methyl)-6-methoxypyridin-2-yl)-[1,1′-biphenyl]-3-yl)-3-(((((S)-5-oxopyrrolidin-2-yl)methyl)amino)methyl)-4H-pyrido[1,2-a]pyrimidin-4-one]	2 nM
COc1nc(-c2cccc(-c3cccc(-c4cc5c(=O)n(C)c(CN[C@H]6C[C@](C)(O)C6)nn5c4)c3Cl)c2Cl)ccc1CNC[C@@H]1CCC(=O)N1 [Example 332, 6-(2,2′-Dichloro-3′-(6-methoxy-5-(((((S)-5-oxopyrrolidin-2-yl)methyl)amino)methyl)pyridin-2-yl)-[1,1′-biphenyl]-3-yl)-2-((((1r,3r)-3-hydroxy-3-methylcyclobutyl)amino)methyl)-3-methylpyrrolo[2,1-f][1,2,4]triazin-4(3H)-one]	500 nM
COC(=O)CNCc1nn2cc(-c3cccc(-c4cccc(-c5ccc(CNC[C@@H]6CCC(=O)N6)c(OC)n5)c4Cl)c3Cl)cc2c(=O)n1C [Example 482, Methyl 2-[[6-[2-chloro-3-[2-chloro-3-[6-methoxy-5-[[[(2S)-5-oxopyrrolidin-2-yl]methylamino]methyl]-2-pyridyl]phenyl]phenyl]-3-methyl-4-oxo-pyrrolo[2,1-f][1,2,4]triazin-2-yl]methylamino]acetate]	28 nM
COc1nc(-c2cccc(-c3cccc(-c4cnc5c(c4)CNCC(=O)N5)c3Cl)c2Cl)ccc1CNC[C@@H]1CCC(=O)N1 [Example 403, (S)-7-(2,2′-Dichloro-3′-(6-methoxy-5-((((5-oxopyrrolidin-2-yl)methyl)amino)methyl)pyridin-2-yl)-[1,1′-biphenyl]-3-yl)-1,3,4,5-tetrahydro-2H-pyrido[2,3-e][1,4]diazepin-2-one]	0.1 nM
COc1nc(-c2cccc(-c3cccc(-c4ccn5c(=O)c(CNC6CC7(CCNC7=O)C6)cnc5c4)c3Cl)c2Cl)ccc1CNC[C@@H]1CCC(=O)N1 (single isomer, unassigned) [Example 251]	8.9 nM
